According to publication PMC6813354, “Bases of Bacterial Sodium Channel Selectivity Among Organic Cations” (Scientific Reports, 2019):

Biological target: T1, NaChBac (Halalkalibacterium halodurans, UniProt Q9KCR8)
T1 construct: gene BH1501; NaChBac in pTracer-CMV2, transiently expressed in tsA 201 cells; homotetramer
T1 sequence (Q9KCR8 1-274): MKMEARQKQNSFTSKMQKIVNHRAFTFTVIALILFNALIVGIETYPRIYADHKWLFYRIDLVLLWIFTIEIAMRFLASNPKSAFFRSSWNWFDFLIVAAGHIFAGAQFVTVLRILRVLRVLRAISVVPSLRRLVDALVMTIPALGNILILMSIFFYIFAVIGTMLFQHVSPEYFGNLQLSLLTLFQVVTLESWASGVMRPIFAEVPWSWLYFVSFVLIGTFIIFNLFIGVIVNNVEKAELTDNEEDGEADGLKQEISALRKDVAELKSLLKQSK
Test: whole-cell patch clamp
Assay type: cell-based
Conditions: 142.5 mM external replacing Na+; pH 7.4; room temperature; weak pore block of Na+ current

**Q.** How did the whole-cell patch clamp turn out when CN [MA^+, methylammonium] was run?
**A.** The whole-cell patch clamp was “MA^+ reduces the sodium current amplitude more effectively than TMA^+ in WT and E191D mutant”.

**Q.** For C[N+](C)(C)C [TMA^+, tetramethylammonium], which whole-cell patch clamp is on record?
**A.** Its whole-cell patch clamp is “different blocking effects of TMA^+ (purple) and MA^+ (orange), relative to Na^+ controls”.
